From PubChem BioAssay AID1033 (Sanford-Burnham Center for Chemical Genomics, 2008) come the findings set out here.

Molecules are shown by their SMILES. Calls of active or inactive are those of the source. The rule behind the calls is not given here.

In this test the target is Chaperone protein DnaK (Escherichia coli (strain K12)) (UniProt P0A6Y8). The test can be described thus: E. coli DnaK SBD ligand binding – biophysical, NMR, chaperone (AID 1033). The settings on record: Purified DnaK SBD.
Sequence of Chaperone protein DnaK (Escherichia coli (strain K12)) (P0A6Y8 whole entry, looked up): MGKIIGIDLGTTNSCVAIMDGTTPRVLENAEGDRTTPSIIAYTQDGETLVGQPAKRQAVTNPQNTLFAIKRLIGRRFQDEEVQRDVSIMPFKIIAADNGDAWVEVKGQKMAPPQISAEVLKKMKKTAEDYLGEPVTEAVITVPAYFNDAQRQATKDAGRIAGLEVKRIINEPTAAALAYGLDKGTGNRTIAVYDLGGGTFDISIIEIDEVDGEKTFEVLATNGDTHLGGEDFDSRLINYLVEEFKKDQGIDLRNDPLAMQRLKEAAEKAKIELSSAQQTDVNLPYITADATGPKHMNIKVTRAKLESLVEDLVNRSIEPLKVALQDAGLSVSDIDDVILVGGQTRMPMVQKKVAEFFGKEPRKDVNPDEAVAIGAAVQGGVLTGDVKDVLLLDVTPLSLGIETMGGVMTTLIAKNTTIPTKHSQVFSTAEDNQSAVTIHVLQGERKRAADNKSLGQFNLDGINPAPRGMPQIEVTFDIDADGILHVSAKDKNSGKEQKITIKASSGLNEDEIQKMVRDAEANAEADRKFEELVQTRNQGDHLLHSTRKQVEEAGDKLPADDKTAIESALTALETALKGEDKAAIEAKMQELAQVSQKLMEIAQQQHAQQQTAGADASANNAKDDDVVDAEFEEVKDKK
In general, Kd refers to a measure of binding affinity in units of concentration. Consider `COc1cccc(-c2nn(-c3ccccc3)cc2CO)c1`, for which the Kd is > 4 mM (inactive).
The result for `O=C1CSC(=Nc2ccc(Cl)cc2)N1` reads > 4 mM (inactive); that for `NC(=O)Cn1nc(-c2ccco2)ccc1=O`, > 4 mM (inactive); that for `O=C(Nc1ccc2c(c1)OCO2)c1ccc(=O)[nH]n1`, > 4 mM (inactive).
To `COc1c2c(c(CC=C(C)C)c3oc(=O)c(-c4ccc(O)cc4)c(O)c13)OC(C)(C)C=C2` belongs > 4 mM (inactive).
The result for `c1cncc(Nc2nc(-c3ccncc3)cs2)c1` reads > 4 mM (inactive); that for `CC(CCC(=O)O)[C@H]1CCC2C3CC[C@@H]4C[C@H](O)CC[C@]4(C)C3C[C@H](O)[C@@]21C` (some centres not stated), > 4 mM (inactive).
For the compound `CC(C)(OC(=O)c1ccccc1)[C@@H]1Cc2cc3ccc(=O)oc3cc2O1`, the Kd was > 4 mM (inactive).
As for `NCc1ccc(-n2cccn2)cc1`, the Kd was > 4 mM (inactive).
To `CSc1nc2[nH]ncc2c(=O)[nH]1` belongs > 4 mM (inactive).
With `CC(=O)OC[C@H]1O[C@@H](Oc2cc(OC(C)=O)c3c(=O)cc(-c4ccc(OC(C)=O)cc4)oc3c2)[C@H](OC(C)=O)[C@@H](OC(C)=O)[C@@H]1OC(C)=O`, the Kd was > 4 mM (inactive).
The result for `Cc1[nH]c2ccccc2c(=O)c1CO` reads > 4 mM (inactive).
For `CC(C)NC(=S)N1CCN(S(C)(=O)=O)CC1`, the Kd was > 4 mM (inactive).
To `O=c1[nH]cc(N2CCCCC2)c(=O)[nH]1` belongs > 4 mM (inactive); to `Cc1ccc(NC(=O)/C=C2\SC(=O)NC2=O)cc1`, > 4 mM (inactive).
The result for `CC1(C)O[C@H]2[C@H](O)C[C@](O)(C(N)=O)C[C@H]2O1` reads > 4 mM (inactive); that for `Nc1nc(-c2cccnc2)nn1C(=O)Cc1ccccc1`, > 4 mM (inactive).
The result for `Nc1ccc(CN2CCS(=O)(=O)CC2)cc1` reads > 4 mM (inactive).
As to `Nc1ccc(O)cn1`, the Kd was > 4 mM (inactive).
To `O=C(Nc1ccccc1N1CCCC1)c1cccnc1` belongs > 4 mM (inactive); to `CCOC(=O)c1c(C)nc2sccn12`, > 4 mM (inactive).
To `O=C(O)c1cccc2nsnc12` belongs > 4 mM (inactive); to `C=CCc1ccc(O)c(OC)c1`, > 4 mM (inactive).
The result for `COC(=O)[C@]1(C)CCC[C@]2(C)c3ccc(C(C)C)cc3C(=O)CC12` (some centres not stated) reads > 4 mM (inactive).
Consider `O=C1N=c2ccccc2=C1c1[nH]c(=S)[nH]c1O`, for which the Kd is > 4 mM (inactive).
Regarding `CCN1CCn2c1nc(N1CCOCC1)nc2=O`, the Kd was > 4 mM (inactive).
The result for `Cc1ccccc1OCC(=O)O` reads > 4 mM (inactive); that for `O=C(NN1C(=O)C2C3C=CC(C3)C2C1=O)C1CC=CCC1` (configuration not stated), > 4 mM (inactive); that for `Cn1ncc(C(=O)O)c1-c1ccccc1`, > 4 mM (inactive).
Take `CCn1cnc2sc(C(=O)O)c(C)c2c1=O`: the Kd was > 4 mM (inactive).
For `O=C(CSc1ncnc2ccccc12)NCCCO`, the Kd was > 4 mM (inactive).
Turning to `COc1c(O)cc(O)cc1O`, the Kd was > 4 mM (inactive).
For the compound `Cc1ccc(NC(=O)C2CCN(S(C)(=O)=O)CC2)cc1`, the Kd was > 4 mM (inactive).
As for `Cc1nn2c(=O)/c(=C/c3cccc(F)c3)sc2nc1=O`, the Kd is > 4 mM (inactive).
As to `O=C(Cc1cccs1)Nc1ccccn1`, the Kd is > 4 mM (inactive).
Turning to `Nc1ncnc(NCCCO)c1[N+](=O)[O-]`, the Kd is > 4 mM (inactive).
To `NS(=O)(=O)c1ccc(F)cc1` belongs > 4 mM (inactive); to `O=C(O)C1CSC2(CCCCC2)N1` (configuration not stated), > 4 mM (inactive).
In the case of `COc1c(O)cccc1O`, the Kd is > 4 mM (inactive).
The result for `Cc1nc(-c2ccccc2)sc1CN` reads > 4 mM (inactive); that for `CNC(=O)C(=O)Nc1cccc(Cl)c1`, > 4 mM (inactive).
Turning to `COc1c(F)c(F)c(-c2csc(N)n2)c(F)c1F`, the Kd is > 4 mM (inactive).
Consider `CC(C)C(C)/C=C/C(C)C1CCC2C3=CC=C4CC(O)CCC4(C)C3CCC21C` (configuration not stated), for which the Kd was > 4 mM (inactive).
To `CN(C)C(=S)Nc1ccccc1N1CCOCC1` belongs > 4 mM (inactive); to `COC(=O)C[C@H]1C(C)(C)C(=O)[C@@H]2CC3=C4CC(=O)O[C@@H](c5ccoc5)[C@]4(C)CCC3C1(C)C2=O` (some centres not stated), > 4 mM (inactive); to `CC1CCC2(OC1)OC1CC3C4CC[C@H]5C[C@@H](O)CC[C@]5(C)C4CC(=O)[C@]3(C)C1C2C` (some centres not stated), > 4 mM (inactive).
Take `OCCN1CCN(C(=S)c2ccc(Cl)cc2)CC1`: the Kd is > 4 mM (inactive).
The result for `COc1cc(S(=O)(=O)N(C)C)ccc1F` reads > 4 mM (inactive); that for `Cc1c(CCO)c(=O)n2c([nH]c3ccccc32)c1C#N`, > 4 mM (inactive); that for `CC(=O)N1CCN(c2ccc(N)cc2)CC1`, > 4 mM (inactive).
With `NC(=O)c1ccccc1N1CCCCC1`, the Kd was > 4 mM (inactive).
The result for `CC1=C(/C=C/C(C)=C/C=C/C(C)=C/C=C/C=C(C)/C=C/C=C(C)/C=C/C(=O)[C@]2(C)C[C@@H](O)CC2(C)C)C(C)(C)C[C@H](O)C1` reads > 4 mM (inactive).
As to `NCCc1nc2ccccc2[nH]1`, the Kd is > 4 mM (inactive).
With `C=C[C@H]1CN2CC[C@H]1C[C@H]2[C@H](O)c1ccnc2ccccc12`, the Kd was > 4 mM (inactive).
To `Cc1nc(-c2ccc(NS(C)(=O)=O)cc2)cs1` belongs > 4 mM (inactive); to `CC1=C2C(O)C(=O)OC3CC4C(C)(C)C(=O)C=C[C@]4(C)C(CC1)[C@]23C` (some centres not stated), > 4 mM (inactive); to `Cc1cc(N)n(C2CCOC(C)(C)C2)n1` (configuration not stated), > 4 mM (inactive).
To `COc1cccc2c1CCC1=CC(=O)CC[C@@]12C` belongs > 4 mM (inactive).
For `CN1CCC(N(C)C2CCN(C)CC2)CC1`, the Kd was > 4 mM (inactive).
`NC(=O)CCN1C(=O)c2ccccc2C1=O`: the Kd was > 4 mM (inactive).
For `CCOC(=O)N1CCCC1c1cccnc1` (configuration not stated), the Kd was > 4 mM (inactive).
Take `O=C(NN=C1CCCC1)c1ccncc1`: the Kd was > 4 mM (inactive).
For `CC(=O)Nc1nnc(-c2ccccc2S(C)(=O)=O)o1`, the Kd was > 4 mM (inactive).
To `NC(C(=O)O)C(O)c1ccccc1` (configuration not stated) belongs > 4 mM (inactive); to `COC(=O)C[C@H]1C(C)(C)C(=O)[C@@H]2CC3=C(CC[C@]4(C)C3=CC(=O)O[C@H]4c3ccoc3)C1(C)C2=O`, > 4 mM (inactive).
To `Cc1nc2ccccc2c2c1C(=O)N(N)C2=O` belongs > 4 mM (inactive).
The result for `COc1cccc(Oc2ccc(N)cn2)c1` reads > 4 mM (inactive); that for `CC(=O)Oc1ccc(/C=C/c2cc(OC(C)=O)cc(OC(C)=O)c2)cc1`, > 4 mM (inactive); that for `CCOC(=O)CSc1nnc(C)c(=O)[nH]1`, > 4 mM (inactive).
Consider `CCSc1nnc2[nH]c(=O)cc(C)n12`, for which the Kd is > 4 mM (inactive).
To `Cc1ccc(C(O)c2nccn2C)o1` (configuration not stated) belongs > 4 mM (inactive).
For the compound `Cc1oc2nc3c(c(=O)[nH]c(=O)n3C)n2c1C`, the Kd was > 4 mM (inactive).
